Entries after “also recorded” stand apart in the source; their conditions may differ. Where two headings read alike, the source gives them in different places. Square brackets hold non-standard residues; d marks the D form. Ends that are not written are not given here.
Legend:
[1] = tested on: γ-thrombin-induced platelet aggregation; assay: γ-thrombin-induced platelet aggregation in human platelet-rich plasma; assay type: cell-based; settings: for inhibition of γ-thrombin-induced platelet aggregation (in words): assay like Example 1A
Protocol: For human platelet aggregation studies, 50 ml human blood was collected into a syringe containing 5 ml of 0.013 M sodium citrate. The anticoagulated blood was centrifuged at 180 xg for 10 minutes at room temperature and the platelet-rich plasma was the supernatant. Platelet aggregation studies in platelet-rich plasma were performed in the cuvette of an aggregometer using γ-thrombin (Haematologic Technologies, Essex Junction, Vt.). After standardization of the aggregometer, the threshold dose of γ-thrombin, defined as the minimal concentration that will induce full platelet aggregation, was ascertained for each preparation of platelet-rich plasma. Typically, the threshold dose of γ-thrombin was between 5 and 30 nM.
Various concentrations of the peptide being tested were added to the platelet-rich plasma in the cuvette of the aggregometer. Platelet aggregation was induced by the addition of γ-thrombin. The degree of platelet aggregation was determined by measuring (in arbitrary units) the increase in light transmission through the stirred suspension of platelet-rich plasma. […]
The peptides synthesized in Example 4 were assayed for the ability to inhibit γ-thrombin-induced platelet aggregation in platelet-rich plasma.

[2] = tested on: fibroblasts (thrombin receptor, PAR 1); assay: α-thrombin-induced calcium mobilization in fibroblasts; assay type: cell-based
Protocol: A variation of the calcium mobilization assay uses fibroblasts (which express a single receptor for thrombin, PAR 1), umbilical vein endothelial cells, or other cells which express the cloned thrombin receptor, and which grow in monolayers on the bottom of plastic wells.
Fibroblasts or endothelial cells were grown in 24-96 well plates and loaded with the fluorescent Ca^2+ indicator fura-2 acetyloxymethylester (5 μM, Molecular Probes Inc.) by incubation for 60 min. in HEPES-Tyrode's buffer at 37° C. After washing the cells, the fluorescence of the cells was monitored on a thermostatically controlled heated pad at 37° C. for 1 min, then the cells were incubated with α-thrombin (1 to 5 nM) in the absence or presence of a BK analog. Fluorescence was detected by a Perkin-Elmer LS-50B Luminescence Spectrofluorometer. Excitation was measured at 340 and 380 nm wavelength and emission was assessed at 510 nm. The cytosolic Ca^2+ levels were determined as described above. The Rmax value was determined using 10 mM Ca^2+ in the presence of 20 μM Ionophor A23187; Rmin was determined in the presence of 20 mM EDTA.
The ability of BK analogs to inhibit α-thrombin-induced calcium mobilization in fibroblasts and human umbilical vein endothelial cells (HUVEC) was assayed as described in Example 1C.

[3] = target: T1, NAT12 (thrombin receptor cleavage site) (Homo sapiens, UniProt P25116); assay: Binding of biotinylated NAT12 to peptides linked to microtiter plates; settings: peptide linked to microtiter plate
T1 construct: spans amino acids 35-46 of the α-thrombin cleavage site on the thrombin receptor
Protocol: (§1) Peptides from a combinatorial library are linked to microtiter plates and the wells are blocked with 1% BSA. Biotinylated-NAT12 is incubated with the microtiter plates. After washing, the presence of biotin-NAT12 attached to the matrix support expressing peptides is detected by incubation with ImmunoPure streptavidin horseradish peroxidase conjugate (Pierce Chemical Co., Rockville Ill.) followed by peroxidase-specific fast reacting substrate, turbo-3,3′,5,5′-tetramethylbenzidine (turbo-TMB, Pierce Chemical Co., Rockville Ill.). After incubation for 5 min at room temperature, the color reaction of the turbo-TMB is stopped by the addition of 1 M phosphoric acid. The bound peptide is quantified by measuring the absorbance of the reaction mixture at 450 nm using a Microplate auto reader EL311 (BioTek Instrument, Winooski Vt.).
The specific binding of biotinylated NAT12 to BK analogs and other peptides was assayed as described in Example 2A.

[4] = target: T2, NAT12 (SEQ ID NO:2), α-thrombin cleavage site on the thrombin receptor (Homo sapiens, UniProt P25116); assay: α-thrombin cleavage of NAT12 peptide (HPLC); assay type: biochemical; settings: 1 mM peptide, 8 nM α-thrombin
T2 construct: spans amino acids 35-46 of the α-thrombin cleavage site on the thrombin receptor
Protocol: The peptide NAT12 (SEQ ID NO:2), which spans amino acids 35-46 of the α-thrombin cleavage site on the thrombin receptor (Vu et al., Cell 64, 1057 (1991), was also used to determine whether BK analogs blocked α-thrombin cleavage of the cloned receptor.
The cleavage studies were performed according to the method of Molino et al., J. Biol. Chem. 270, 11168 (1995). Briefly, NAT12 (SEQ ID NO:2) was dissolved in a solution of 0.01 M NaH2PO4 and 0.15 M NaCl, pH 7.4. The mixture was then incubated with 8 nM α-thrombin for one hour at 37° C. either in the absence (control) or presence of 1 mM of a BK analog. Following incubation, the mixture was applied to a Vyadec C-18 HPLC column in 0.1% trifluoroacetic acid and eluted with a gradient from 0% to 100% of 80% MeCN and 0.1% trifluoroacetic acid. The sizes of the separated products were confirmed by mass spectrometry.
NAT12 (SEQ ID NO:2) produced a single peak (peak 1) when analyzed by HPLC. […] The additional peaks, peaks 3 and 2, represent the cleavage products of NAT12.

[5] = In vivo clearance after single intravenous infusion (plasma ELISA); design: species or system New Zealand white rabbits; settings: rabbit; for half-life: single i.v. infusion
Protocol: (§2) Clearance studies were performed in New Zealand white rabbits weighing between 2.0 and 2.5 kg. Rabbits were premedicated according to the method of Michelson et al., J. Mol. Cell Cardiol. 20, 547 (1988) with 10 mg/kg 1 M xylazine and 10 mg/kg 1 M ketamine. After tracheostomy, intubation, and positive pressure ventilation done with room air (Harvard instruments), stage III surgical anesthesia was maintained with 20 mg/ml of intravenous pentobarbital. A carotid artery and a jugular vein were then exposed. A catheter was inserted into the exposed carotid artery for withdrawal of blood samples and monitoring the animal's blood pressure (Gould, Inc., Cardiovascular Products, Oxnard. Calif.). In a similar manner, a catheter was inserted into the exposed jugular vein for administering the anesthetic and BK analog.
(§3) A single intravenous infusion of BK analog was injected. The amount of BK analog injected was calculated from the weight of the animal such that the blood concentration was 1 mM peptide. For example: for a 2.5 kg rabbit, 7% of its weight gives an estimated blood volume of 175 ml. Accordingly, 89 mg of the control BK fragment SEQ ID NO:7 was injected (giving a 1 mM concentration in the 175 ml plasma). Depending upon the size of the animal, 75 to 90 mg peptide was injected. Blood samples were collected at 2, 4, 6, 8, 10, 20, 30, 40, 60, 90, and 120 minute intervals after infusion into a 0.013 M sodium citrate anticoagulant solution. Plasma was prepared from each of the blood samples collected over time by centrifugation of the blood samples at 10,000×g for two minutes. Aliquots of the plasmas were assayed for the presence of the BK analog antigen by the ELISA technique using a MARKIT-M [1-5] BK assay from Dainippon Pharmaceutical Co., Ltd., Osaka, Japan.

[6] = Observations of the animals after bolus injection (blood pressure, pulse, platelet count, bleeding); assay type: in vivo, New Zealand white rabbits; settings: rabbit, i.v. bolus
Protocol: as §2, §3

RPPGC = target: T3, RPPGC (not fully specified); assay: microtiter plate assay, plate-linked peptide, biotin-NAT12 detected with streptavidin-HRP
T3 peptide: RPPGC
Protocol: as §1, with “turbo-3,3',5,5'-tetramethylbenzidine” for “turbo-3,3′,5,5′-tetramethylbenzidine”
(§4) Peptides from a combinatorial library are linked to a microtiter plate and blocked with 1% BSA. Biotinylated-NAT12 is incubated with the microtiter plate. After washing, the presence of biotin-NAT12 attached to the matrix support expressing peptides is detected by incubation with Immu-noPure streptavidin horseradish peroxidase conjugate (Pierce Chemical Co., Rockville Ill.) followed by peroxidase-specific fast reacting substrate, turbo-3,3',5,5'-tetramethylbenzidine (turbo-TMB, Pierce Chemical Co., Rockville Ill.). After incubation for 5 min at room temperature, the color reaction of the turbo-TMB is stopped by the addition of 1 M phosphoric acid. The bound peptide is quantified by measuring the absorbance of the reaction mixture at 450 nm using a Microplate auto reader EL311 (BioTek Instrument, Winooski Vt.). Compounds which bind the NAT12 peptide are also assayed for the ability to inhibit platelet aggregation and the ability to inhibit calcium mobilization, using the assays described in Example 1.

LNA7 = target: T4, LNA7; assay: as above
T4 construct: Control peptide
T4 peptide: LNAENNA
Protocol: as §1, with “turbo-3,3',5,5'-tetramethylbenzidine” for “turbo-3,3′,5,5′-tetramethylbenzidine”
as §4

FSPFR = target: T5, FSPFR; assay: as above
T5 construct: Control peptide
T5 peptide: FSPFR
Protocol: as §1, with “turbo-3,3',5,5'-tetramethylbenzidine” for “turbo-3,3′,5,5′-tetramethylbenzidine”
as §4

NAT12 = target: T6, NAT12; assay: cell-based or functional assay
T6 chain: NATLDPRSFLLR

Molecule: Arg-Pro
- inhibition of γ-thrombin-induced platelet aggregation (in words) ([1]; human PRP): no inhibitory activity

Molecule: Arg-Pro-Pro [RPP]
- γ-thrombin-induced platelet aggregation at 50 μM peptide (FIG. 2) ([1]; 50 μM peptide, 27.5 nM γ-thrombin): abolish
- fold better as an inhibitor than RPPGF ([1]; 100% inhibition of γ-thrombin-induced aggregation, same conditions): greater than 2.5 fold
- inhibition of γ-thrombin-induced platelet aggregation (in words) ([1]; human PRP): showed inhibition
- concentration that inhibited γ-thrombin-induced platelet aggregation 100% ([1]; mean±SD of 3 or 5 experiments, human PRP): 0.089 mM
- inhibition of α-thrombin-induced calcium mobilization in fibroblasts (FIG. 5) [2]: inhibited calcium mobilization; also recorded: inhibition

Molecule: Arg-Pro-Pro-Ala-Phe (RPPAF; bradykinin analog)
- inhibition of γ-thrombin-induced platelet aggregation (in words) ([1]; human PRP): showed inhibition

Molecule: Arg-Pro-Pro-Amide [RPP-Amide]
- inhibition of γ-thrombin-induced platelet aggregation (in words) ([1]; human PRP): reduced ability

Molecule: Arg-[dP]-Pro
- inhibition of γ-thrombin-induced platelet aggregation (in words) ([1]; human PRP): reduced ability

Molecule: FSPFR: peptide FSPFR (SEQ ID NO: 10) (bradykinin analog)
- specific binding of biotinylated NAT12 to the peptide (FIG. 4) [3]: not

Molecule: LNA7: non-BK analog peptide (SEQ ID NO:8) (LNAENNA; bradykinin analog)
- inhibition of γ-thrombin-induced platelet aggregation ([1]; 1 mM peptide, 20 nM γ-thrombin, human PRP): unable to inhibit
- specific binding of biotinylated NAT12 to the peptide (FIG. 4) [3]: not

Molecule: RPPGC: peptide RPPGC (SEQ ID NO:9) (bradykinin analog)
- specific binding of biotinylated NAT12 to the peptide (FIG. 4) [3]: specifically bound

Molecule: RPPGF [RPPGF, Arg-Pro-Pro-Gly-Phe]
- reduction of NAT12 peak 1 area after α-thrombin treatment ([4]; 1 h 37° C., without peptide 81%): 57%
- NAT12 cleavage product peak 2, share of original peak area ([4]; without peptide 37%): 26%
- NAT12 cleavage product peak 3, share of original peak area ([4]; without peptide 44%): 31%
- Cmax ([5]; New Zealand white, plasma, iv, single i.v. infusion 75 to 90 mg, ELISA, two of three rabbits, read-out: peak plasma concentration after infusion): 60 µg/mL
- half-life ([5]; New Zealand white, plasma, iv, read-out: half-life of antigen clearance in plasma, first phase): 2.8 min
- half-life ([5]; New Zealand white, plasma, iv, read-out: half-life of antigen clearance in plasma, second phase): 20 min
- peak plasma concentration after infusion ([5]; single i.v. infusion 75 to 90 mg, ELISA, two of three rabbits): 0.120 mM
- bleeding at the surgical sites of cutdowns and intubations [6]: no abnormal bleeding
- blood pressure, pulse, and platelet count [6]: remained stable
- unfavorable effects following the bolus injection [6]: No unfavorable effects were observed

Molecule: [dR]-Pro-Pro
- inhibition of γ-thrombin-induced platelet aggregation (in words) ([1]; human PRP): reduced ability

B1: biotinylated NAT12 (peptide)
peptide: NATLDPRSFLLR
modifications: also: biotinylated (position not given here)
notes: It was in solution in the microtiter plate assay; also called biotin-NAT12
- binding result (RPPGC): binds
- binding result (LNA7): no binding
- binding result (FSPFR): no binding

B2: Arg-Pro-Pro-Gly-Phe (RPPGF) (peptide)
peptide: RPPGF
modifications: not checked
- cleavage product peak 2, as a share of the original NAT12 peak area, in the presence of 1 mM peptide (NAT12): 26%
- cleavage product peak 3, as a share of the original NAT12 peak area, in the presence of 1 mM peptide (NAT12): 31%
- reduction of the NAT12 HPLC peak area (peak 1) after alpha-thrombin in the presence of 1 mM peptide (NAT12): 57%

From US6982249B1, “Bradykinin analogs as selective inhibitors of cell activation” (The Regents of the University of Michigan, priority 1997, dated 2006)
